Experimental findings from ChEMBL document CHEMBL3864125, “Design, synthesis and evaluation of 4-dimethylamine flavonoid derivatives as potential multifunctional anti-Alzheimer agents” (Eur J Med Chem, 2016) are described below.

The source made the active and inactive calls. No cut-off for these calls is given here.

As usually defined, the IC50 is the concentration that inhibits the measured activity by half. The low end stands for higher potency, the high end for lower potency.

The target in one data set is Acetylcholinesterase (Electrophorus electricus, UniProt O42275).
Another data set addresses Cholinesterase (Equus caballus, UniProt P81908).
Data set [1] has as its target Acetylcholinesterase (Electrophorus electricus) (UniProt O42275). The data set can be described thus: Mixed-type inhibition of electric eel AChE using ATC as substrate at 1.25 to 5 uM preincubated for 15 mins followed by substrate addition by Lineweavere-Burk plot analysis.
Data set [2] concerns the target Cholinesterase (Equus caballus) (UniProt P81908). The following applies: 125 to 500 nM.
Data set [3] deals with PC-12. In words: Protective effect against H2O2-induced cell death in rat PC12 cells at 5 uM preincubated for 2 hrs followed by H2O2 addition for 24 hrs by MTT assay. It counts as functional, cell-based.
Data set [4] concerns PC-12. The data set can be described thus: Antioxidant activity in rat PC12 cells assessed as decrease of H2O2-induced ROS production at 2.5 uM preincubated for 2 hrs followed by H2O2 addition for 24 hrs by DCFH-DA /DAPI-based fluorescence assay. It counts as functional, cell-based.
For data set [5], the target named is T1, Amyloid-beta precursor protein (Homo sapiens, UniProt P05067). In words: Potency index, ratio of curcumin IC50 to compound IC50 for self-mediated amyloid beta (1 to 42) (unknown origin) aggregation.
Data set [6] deals with Acetylcholinesterase (Electrophorus electricus) (UniProt O42275). The data set can be described thus: Mixed-type inhibition of electric eel AChE using ATC as substrate at 25 to 100 nM preincubated for 15 mins followed by substrate addition by Lineweavere-Burk plot analysis.
Data set [7] deals with Cholinesterase (Equus caballus) (UniProt P81908). In words: Mixed-type inhibition of horse serum BChE using BTC as substrate at 12.5 to 100 nM preincubated for 15 mins followed by substrate addition by Lineweavere-Burk plot analysis.
In data set [8] the target is T1, Amyloid-beta precursor protein.
Description: Inhibition of self-mediated amyloid beta (1 to 42) (unknown origin) aggregation after 48 hrs by thioflavin T fluorescence assay
The next data set is filed under the species Rattus norvegicus. In words: Cytotoxicity against rat PC12 cells assessed as reduction in cell viability at 1 to 5 uM after 2 hrs by MTT assay. It counts as toxicity. The following applies: pc-12, 2 h. (Tetrazolium assays rely on reduction of a dye to a coloured formazan, in cell work by metabolically active cells.)
For data set [9], the system named is PC-12. In words: Protective effect against H2O2-induced cell death in rat PC12 cells at 1 to 5 uM preincubated for 2 hrs followed by H2O2 addition for 24 hrs by MTT assay. It counts as functional, cell-based.

Chain of Cholinesterase (P81908 whole entry): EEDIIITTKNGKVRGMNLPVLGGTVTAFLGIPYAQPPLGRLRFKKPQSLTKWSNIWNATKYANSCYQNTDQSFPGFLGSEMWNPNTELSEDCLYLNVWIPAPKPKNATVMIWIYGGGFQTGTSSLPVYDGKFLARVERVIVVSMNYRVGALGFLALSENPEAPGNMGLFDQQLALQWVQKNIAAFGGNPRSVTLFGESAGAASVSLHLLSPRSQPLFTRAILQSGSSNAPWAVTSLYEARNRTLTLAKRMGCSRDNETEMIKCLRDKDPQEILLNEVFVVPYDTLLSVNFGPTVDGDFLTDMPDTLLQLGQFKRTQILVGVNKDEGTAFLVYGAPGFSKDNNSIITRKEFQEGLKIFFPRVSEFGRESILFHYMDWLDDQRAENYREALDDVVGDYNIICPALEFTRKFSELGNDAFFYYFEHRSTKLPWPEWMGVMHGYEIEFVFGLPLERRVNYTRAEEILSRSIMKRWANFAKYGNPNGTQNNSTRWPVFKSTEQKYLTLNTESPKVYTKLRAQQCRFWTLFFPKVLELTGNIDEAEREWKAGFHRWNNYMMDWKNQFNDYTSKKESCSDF
Chain of Acetylcholinesterase (O42275 whole entry): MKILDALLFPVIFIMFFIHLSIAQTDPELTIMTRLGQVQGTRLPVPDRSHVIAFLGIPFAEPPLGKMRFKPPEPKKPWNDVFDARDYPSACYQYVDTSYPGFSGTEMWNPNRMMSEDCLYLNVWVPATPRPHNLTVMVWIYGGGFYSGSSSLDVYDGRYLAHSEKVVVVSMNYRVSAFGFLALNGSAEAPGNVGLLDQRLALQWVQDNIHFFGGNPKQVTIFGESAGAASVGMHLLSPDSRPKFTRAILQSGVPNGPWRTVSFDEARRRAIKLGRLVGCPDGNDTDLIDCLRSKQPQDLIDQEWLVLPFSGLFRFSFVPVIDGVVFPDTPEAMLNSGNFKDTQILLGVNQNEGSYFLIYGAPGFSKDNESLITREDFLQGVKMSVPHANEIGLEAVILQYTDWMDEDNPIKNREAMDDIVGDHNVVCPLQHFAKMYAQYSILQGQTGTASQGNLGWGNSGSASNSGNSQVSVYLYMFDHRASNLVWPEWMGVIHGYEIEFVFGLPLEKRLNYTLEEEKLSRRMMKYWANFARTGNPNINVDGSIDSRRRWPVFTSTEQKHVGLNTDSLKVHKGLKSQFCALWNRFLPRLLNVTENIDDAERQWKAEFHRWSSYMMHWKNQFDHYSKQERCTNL
Chain of Acetylcholinesterase (Electrophorus electricus) (O42275 24-633 limits assumed): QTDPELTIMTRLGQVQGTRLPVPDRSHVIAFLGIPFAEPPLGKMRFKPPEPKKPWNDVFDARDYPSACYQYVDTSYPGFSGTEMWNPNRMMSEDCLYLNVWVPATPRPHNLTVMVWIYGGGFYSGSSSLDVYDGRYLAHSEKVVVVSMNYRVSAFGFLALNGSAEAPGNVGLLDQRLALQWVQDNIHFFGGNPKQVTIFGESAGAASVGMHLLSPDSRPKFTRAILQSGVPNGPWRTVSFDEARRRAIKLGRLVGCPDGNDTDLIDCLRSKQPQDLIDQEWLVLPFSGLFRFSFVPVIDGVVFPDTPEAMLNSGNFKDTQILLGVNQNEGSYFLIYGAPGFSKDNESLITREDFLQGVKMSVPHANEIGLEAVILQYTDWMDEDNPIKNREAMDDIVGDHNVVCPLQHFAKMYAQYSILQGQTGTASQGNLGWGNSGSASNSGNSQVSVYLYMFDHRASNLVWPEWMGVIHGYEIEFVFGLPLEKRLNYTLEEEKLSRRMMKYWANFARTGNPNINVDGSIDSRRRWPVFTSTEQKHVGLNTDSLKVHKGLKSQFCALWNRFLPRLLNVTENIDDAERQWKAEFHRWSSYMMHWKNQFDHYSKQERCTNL
Chain of Cholinesterase (Equus caballus) (P81908 whole entry): as the sequence (P81908 whole entry) above
T1 sequence (P05067 whole entry): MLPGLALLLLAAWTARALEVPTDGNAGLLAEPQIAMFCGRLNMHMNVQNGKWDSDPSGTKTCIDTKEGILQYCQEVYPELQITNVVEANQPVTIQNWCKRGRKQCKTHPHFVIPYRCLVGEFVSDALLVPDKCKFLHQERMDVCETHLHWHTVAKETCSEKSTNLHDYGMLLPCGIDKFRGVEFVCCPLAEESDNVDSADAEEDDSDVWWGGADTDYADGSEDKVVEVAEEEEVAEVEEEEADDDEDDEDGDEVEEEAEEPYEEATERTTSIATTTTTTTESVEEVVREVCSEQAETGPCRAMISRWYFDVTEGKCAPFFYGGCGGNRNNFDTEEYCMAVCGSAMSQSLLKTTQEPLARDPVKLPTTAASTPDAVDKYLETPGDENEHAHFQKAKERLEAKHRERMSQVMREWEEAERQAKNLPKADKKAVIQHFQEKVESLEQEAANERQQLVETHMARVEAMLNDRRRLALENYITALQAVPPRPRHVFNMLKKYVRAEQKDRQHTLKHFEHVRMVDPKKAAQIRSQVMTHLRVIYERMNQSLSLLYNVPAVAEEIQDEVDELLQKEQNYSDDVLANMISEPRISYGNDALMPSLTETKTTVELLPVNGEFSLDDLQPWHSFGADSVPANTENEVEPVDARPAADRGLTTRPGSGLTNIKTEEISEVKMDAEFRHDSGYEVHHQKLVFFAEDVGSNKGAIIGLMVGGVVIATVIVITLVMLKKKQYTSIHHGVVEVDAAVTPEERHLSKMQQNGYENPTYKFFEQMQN

In the case of `CN(C)c1ccc(-c2cc(=O)c3ccc(OCC(=O)NCCN4CCCC4)cc3o2)cc1`, the IC50 against Acetylcholinesterase is 3130 nM; at Cholinesterase, 27200 nM.

As for `CN(C)c1ccc(-c2cc(=O)c3ccc(OCC(=O)NCCCN4CCCC4)cc3o2)cc1`, the results for the IC50 at Acetylcholinesterase and against Cholinesterase were 7620 nM and 21600 nM, respectively.

`CN(C)c1ccc(-c2cc(=O)c3ccc(OCC(=O)NCCCCCCN4CCCC4)cc3o2)cc1`: the IC50 against Acetylcholinesterase came out at 3200 nM; on Cholinesterase it was 1350 nM.

For the compound `CN(C)c1ccc(-c2cc(=O)c3ccc(OCC(=O)NCCCCNc4c5c(nc6ccccc46)CCCC5)cc3o2)cc1`, the figures for the IC50 against Acetylcholinesterase and on Cholinesterase were 1460 nM and 335 nM, respectively.

Consider `CN(C)CCCNC(=O)COc1ccc2c(=O)cc(-c3ccc(N(C)C)cc3)oc2c1`, for which the IC50 against Acetylcholinesterase came to 11900 nM; on Cholinesterase, 13600 nM.

As to `CN(C)c1ccc(-c2cc(=O)c3ccc(OCC(=O)NCCNc4c5c(nc6ccccc46)CCCC5)cc3o2)cc1`, the IC50 is 418 nM against Acetylcholinesterase and 814 nM on Cholinesterase.

For `CN(C)c1ccc(-c2cc(=O)c3ccc(OCC(=O)NCCCCN4CCCC4)cc3o2)cc1`, the IC50 against Acetylcholinesterase came out at 4830 nM; at Cholinesterase, 11600 nM.

In the case of `CN(C)c1ccc(-c2cc(=O)c3ccc(OCC(=O)NCCCNc4c5c(nc6ccccc46)CCCC5)cc3o2)cc1`, the IC50 was 769 nM against Acetylcholinesterase and 266 nM at Cholinesterase.

Turning to `CN(C)c1ccc(-c2cc(=O)c3ccc(OCC(=O)NCCCCCCCCN4CCCC4)cc3o2)cc1`, the concentration for half-maximal inhibition (IC50) against Acetylcholinesterase is 2300 nM; against Cholinesterase, 238 nM. Moreover, the inhibition result in data set [1] and in data set [2] was “Active” in each case.

On to `O=c1c(O)c(-c2ccc(O)c(O)c2)oc2cc(O)cc(O)c12`, for which the outcome in the data set on PC-12 [3] and in the data set with PC-12 [4] was Active.

Consider `CN(C)CCNC(=O)COc1ccc2c(=O)cc(-c3ccc(N(C)C)cc3)oc2c1`, for which the figures for the IC50 against Acetylcholinesterase and on Cholinesterase were 5240 nM and 10700 nM, respectively.

With `CN(C)c1ccc(-c2cc(=O)c3ccc(OCC(=O)NCCCCCCCCNc4c5c(nc6ccccc46)CCCC5)cc3o2)cc1`, the IC50 at Acetylcholinesterase was found to be 94.6 nM; against Cholinesterase, 24.7 nM.

Turning to `CN(C)c1ccc(-c2cc(=O)c3ccc(OCC(=O)NCCCCCCNc4c5c(nc6ccccc46)CCCC5)cc3o2)cc1`, in data set [5], the Ratio IC50 stood at 2. The inhibition result in data set [6] and in data set [7] was “Active” throughout. Also, the IC50 is 9470 nM in [8], 59.6 nM at Acetylcholinesterase and 46.2 nM on Cholinesterase. Further, the outcome with PC-12 [3], in the data set with PC-12 [9] and with PC-12 [4] was Active. In the data set filed under Rattus norvegicus, the Activity result is listed as “Non-Toxic”.
